Results taken from US10548911B2, “Small molecule anti-scarring agents” (UNIVERSITY OF ROCHESTER, priority 2014, dated 2020).
“Also recorded” adds a separate entry of the source.

Columns and labels:
[1] = tested on: TGFβ-induced SBE-luciferase activity; experiment: Secondary dual luciferase screen (SBE-luciferase normalized to constitutive Renilla luciferase); format: cell-based, human; settings: for inhibition of luciferase expression, dose responsiveness: secondary dual luciferase screen, several doses (low micromolar)
Description: FIG. 1A is a diagram of Smad-dependent reporter construct. Four tandem Smad binding elements (SBE) were inserted upstream of the minimal Thymidine Kinase (TK) promoter. Downstream of the promoter is a destabilized version of the firefly luciferase gene (luc2P) present in the pLuc2P-Hygro plasmid which also harbors the hygromycin resistance gene. The plasmid was introduced into HEK293FT cell line and individual colonies were selected with hygromycin (200 ug/ml) to develop a Smad/TGFβ dependent-luciferase reporter cell line. FIG. 1B is a graph illustrating the response of the reporter cell line to 1 ng/ml treatment of TGFβ for 20 hours, which results in an approximately 20-fold increase of luciferase activity.
They are: Benzbromarone (“BZB”), Bithionate sodium (“BTS”), Piplartine (piperlongumine) (“PPT”), Amsacrine (“ASC”), and Alexidine (“AXD”). A secondary luciferase screening assay was performed to determine specificity and dose responsiveness of these compounds in comparison to salinomycin (“SNC”). The secondary screen utilizes dual luciferase technology that includes the above mentioned SBE-luciferase in addition to a Renilla luciferase that is under control of the constitutive SV40 promoter. Therefore the SBE-luciferase activity can be normalized to the Renilla luciferase activity to control for toxicity and non-specific effects. The secondary screen can thus be used to remove small molecules that display overt toxicity and/or non-specific effects on the primary assay.

[2] = tested on: TGFβ-induced myofibroblast formation in human fibroblasts; experiment: Western blot of myofibroblast markers αSMA and calponin in TGFβ-treated human (TED orbital) fibroblasts; format: cell-based; settings: for expression of αSMA and calponin: TGFβ; for expression of αSMA and calponin, dose dependence: 10-250 nM
Description: (§1) TED fibroblasts were treated with TGFβ (1 ng/ml) in the presence or absence of 10-250 nM salinomycin for 72 hours to allow formation of myofibroblasts. After 72 hours, cells were harvested and analyzed by Western blot. As expected, the fibroblasts robustly responded to TGFβ, expressing high levels of αSMA and calponin (FIG. 2A). […] At 50 nM salinomycin, expression of αSMA was reduced by 4-fold over TGFβ treatment alone. Furthermore, at 250 nM salinomycin, αSMA expression was reduced by approximately 16-fold, to levels at or below untreated fibroblasts. […] Another key role of myofibroblasts in scar formation is the production of collagen. Whether salinomycin could block myofibroblast collagen production was assessed. Cells were treated with TGFβ and salinomycin as above and after 72 hours, culture medium was collected and analyzed for collagen levels using a specific collagen I antibody and slot blot analysis.
To test these four compounds, human fibroblasts were treated with TGFβ in the absence or presence of 250 nM of either salinomycin, narasin, clioquinol or monensin for 72 hours. After treatment, cell lysates were harvested and analyzed for the presence of the myofibroblast markers, αSMA and calponin (FIG. 3B).

[3] = tested on: collagen production of TGFβ induced myofibroblasts; experiment: Collagen production assay (collagen I slot blot of culture supernatant); format: cell-based, human; settings: 72 hours
Description: Cell culture supernatant was collected and transferred (5-20 ul) to PVDF membrane using a slot blot device. The membrane was blocked and probed with a goat anti-collagen antibody (1:5000), washed and incubated with a donkey anti-goat antibody conjugated to HRP. Band intensities were quantified using ImageLab software and values were normalized to vehicle treatments.
as §1

phospho-p38 = experiment: Western blot of phospho-p38 in TGFβ-treated human orbital fibroblasts; format: cell-based; settings: for reduction of phospho-p38 levels: 250 nM
Description: Therefore, activity of another signaling molecule that is involved in myofibroblast formation, namely the mitogen-activated protein kinase (MAPK), p38, was measured to assess its potential role in the observed results. P38 MAPKs are a class of protein kinases that respond to TGFβ, ultraviolet radiation and other stimuli. Phosphorylation and activation of p38 can lead to numerous downstream signaling pathways, including phosphorylation of Smad proteins.
To further test if salinomycin targets the p38 pathway to block myofibroblast formation, a plasmid encoding a mutant MKK6 (pcDNA3-flag MKK6(glu)) protein was used. MKK6 phosphorylates and thus activates p38 in response to extracellular signals such as TGFβ or other environmental stresses. The MKK6(glu) protein, which harbors glutamate mutations at amino acid residues serine 207 and threonine 211, is constitutively active and thus phosphorylates p38 irrespective of signal (Raingeaud et al., “MKK3- and MKK6-regulated gene expression is mediated by the p38 mitogen-activated protein kinase signal transduction pathway,” Mol. Cell. Biol. 16:1247-1255 (1996), which is hereby incorporated by reference in its entirety). Thus, if salinomycin is blocking the p38 signaling pathway, MKK6(glu) should overcome the effect of salinomycin. MKK6(glu) was first tested using the SBE4-TK-luc reporter plasmid. The luciferase reporter plasmid was introduced into human fibroblasts along with the MKK6(glu) plasmid or a control plasmid (pcDNA3-GFP). Cells were then treated with vehicle, TGFβ or TGFβ plus 250 nM salinomycin. After 24 hours, luciferase activity was measured (FIG. 6A). […] MKK6(glu) was further tested to assess whether it could attenuate the ability of salinomycin to inhibit p38 phosphorylation. Control or MKK6(glu) plasmids were introduced into human fibroblasts by electroporation and then cells were treated with TGFβ for 24 hours. Following treatment, cells were analyzed for flag-MKK6(glu) expression and phospho-p38 by Western blot (FIG. 6B). […] However, MKK6(glu) expression leads to a large induction of phospho-p38, regardless of salinomycin treatment. As a third test, control or MKK6(glu) plasmids were introduced into human fibroblasts by electroporation. After electroporation, cells were induced to form myofibroblasts by TGFβ treatment for 72 hours. Samples were analyzed for expression of flag-MKK6(glu), αSMA, calponin and β-tubulin by Western blot (FIG. 6C).

[4] = tested on: primary human lung fibroblasts; experiment: TGFβ-induced myofibroblast formation, αSMA Western blot and cell images, primary human lung fibroblasts; format: cell-based; settings: HCPT 50 nM or 500 nM, TGFβ, listed as SNC
Description: Human lung fibroblasts were treated with various concentrations of 10-hydroxycamptothecin (HCPT) (50 nM or 500 nM) and induced to form scar-forming myofibroblasts by treating with TGFβ.

[5] = tested on: TGFβ-induced myofibroblast formation in human fibroblasts; experiment: Western blot of myofibroblast markers αSMA and calponin in TGFβ-treated human (TED orbital) fibroblasts; format: cell-based; settings: 250 nM, 72 hours
p38 = settings: human ovarian cancer, 2-7 uM; cited from earlier work

SMILES: CC[C@@H](C(=O)[C@@H](C)[C@@H](O)[C@H](C)[C@@H]1O[C@@H]([C@@H](CC)C(=O)O)CC[C@@H]1C)[C@H]1O[C@]2(C=C[C@@H](O)[C@]3(CC[C@@](C)([C@H]4CC[C@](O)(CC)[C@H](C)O4)O3)O2)[C@H](C)C[C@@H]1C [salinomycin]
- TGFβ-induced SBE-luciferase activity level ([1]; 1 uM): below baseline levels
- inhibition of luciferase expression, dose responsiveness [1]: dose dependent decrease; also recorded: dose responsive decrease
- inhibition of luciferase expression, dose responsiveness ([1]; listed as SNC): substantially inhibited luciferase expression
- reduction of αSMA expression over TGFβ treatment alone ([2]; 50 nM, TGFβ 1 ng/ml, 72 hours): 4 fold
- reduction of αSMA expression over TGFβ treatment alone ([2]; 250 nM, TGFβ 1 ng/ml, 72 hours): approximately 16 fold
- expression of αSMA and calponin ([2]; 250 nM, 72 hours): lower than vehicle levels
- expression of αSMA and calponin ([2]; 250 nM, 72 hours, listed as Salinomycin): inhibited expression of αSMA and calponin
- TGFβ-dependent expression of alpha smooth muscle actin, calponin and collagen ([2]; 250 nM, primary human fibroblasts): blocked
- expression of αSMA and calponin, dose dependence ([2]; TGFβ 1 ng/ml, 72 hours): dose dependent manner
- expression of αSMA and calponin, dose dependence ([2]; TGFβ 1 ng/ml, 72 hours, listed as Salinomycin): dose-dependent decrease
- expression of myofibroblast markers αSMA and calponin ([2]; 100 and 200 nM, TGFβ 1 ng/ml, 72 hours, densitometry): below baseline levels
- collagen production ([3]; 10 nM): decreases
- collagen production ([3]; 100 nM): at baseline levels
- collagen production ([3]; 250 nM): below baseline levels
- collagen I levels, dose dependence ([3]; 10-250 nM): dose-dependent manner
- reduction of phospho-p38 levels (phospho-p38; 5 hours): more than 2 fold
- reduction of phospho-p38 levels (phospho-p38; 24 hours): 10 fold
- phospho-p38 levels (phospho-p38; 5 hours TGFβ treatment): completely blocked
- inhibition of phospho-p38 (phospho-p38; 24 hours TGFβ treatment): 80%
- phosphorylation of p38 (phospho-p38; control plasmid, TGFβ 24 hours): blocks phosphorylation of p38
- formation of myofibroblasts (cell images) [4]: not in samples treated with HCPT or SNC; also recorded: not in samples with HCPT or salinomycin (SNC)
- TGFβ induced expression of αSMA and calponin ([5]; MKK6(glu) expressing cells): attenuated the ability of salinomycin to block
- TGFβ induced expression of αSMA and calponin ([5]; control GFP expressing cells): blocked their induction
- p38 activity (p38): activated
